# Test results taken from patent US10059713B2 (Takeda Pharmaceutical Company Limited, priority 2014, dated 2018).
# Target: human GPR43 (Homo sapiens (Human), UniProt O15552)
# Experiment: Ca-Flux functional assay: determination of agonist/positive allosteric modulator (PAM) activity
# Format: cell-based
# Conditions: CHO-K1 Gα16 cells stably expressing human GPR43; compound added with EC20 sodium acetate; intracellular Ca2+ by FLIPR; does not distinguish agonist from PAM
# Method in brief: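 CHO-K1 Gα16 cells stably expressing human GPR43, loaded with Calcium 5 dye 1 h; compounds (10-point half-log from 10 μM) added with sodium acetate at EC20. FLIPR calcium signal gave EC50, two wells per point; agonists and PAMs not distinguished.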
# human GPR43, sequence (O15552 whole entry): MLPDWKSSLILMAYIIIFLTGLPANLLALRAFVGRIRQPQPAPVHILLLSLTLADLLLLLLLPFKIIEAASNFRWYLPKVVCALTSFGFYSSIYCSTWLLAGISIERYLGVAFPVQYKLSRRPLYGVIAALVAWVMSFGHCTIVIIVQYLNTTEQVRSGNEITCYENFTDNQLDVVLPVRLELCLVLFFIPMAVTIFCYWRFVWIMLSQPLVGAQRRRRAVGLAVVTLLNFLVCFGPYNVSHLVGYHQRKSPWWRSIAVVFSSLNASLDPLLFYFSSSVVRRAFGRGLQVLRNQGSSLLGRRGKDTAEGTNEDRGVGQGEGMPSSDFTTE
row,Structure (SMILES),EC50 [µM]
1,"CC1CCCCN1c1ncnc2c(S(=O)(=O)c3ccccc3)c(N)[nH]c12 (centres unmarked) [Example 69, 7-(benzenesulfonyl)-4-(2-methylpiperidin-1-yl)-5H-pyrrolo[3,2-d]pyrimidin-6-amine]",0.049
2,"Nc1[nH]c2c(C3=CCCCC3)ncnc2c1S(=O)(=O)C1CCOCC1 [Example 61, 4-(cyclohex-1-en-1-yl)-7-(oxane-4-sulfonyl)-5H-pyrrolo[3,2-d]pyrimidin-6-amine]",3.47
3,"Nc1[nH]c2c(C3=CCCCC3)ncnc2c1S(=O)(=O)c1ccc(F)c(F)c1 [Example 49, 4-(cyclohex-1-en-1-yl)-7-[(3,4-difluorobenzene)sulfonyl]-5H-pyrrolo[3,2-d]pyrimidin-6-amine]",0.113
4,"CC[C@H](C)Oc1nc(C)nc2c(S(=O)(=O)c3ccccc3)c(N)[nH]c12 [Example 246, 7-(benzenesulfonyl)-4-[(2S)-butan-2-yloxy]-2-methyl-5H-pyrrolo[3,2-d]pyrimidin-6-amine]",0.064
5,CC1(C)CCN(c2ncnc3c(S(=O)(=O)c4ccccc4)c(N)[nH]c23)C1 [Example 47],0.358
6,"Cc1nc(OC2CCCC2)c2[nH]c(N)c(S(=O)(=O)c3ccccc3)c2n1 [Example 257, 7-(benzenesulfonyl)-4-(cyclopentyloxy)-2-methyl-5H-pyrrolo[3,2-d]pyrimidin-6-amine]",0.1
7,"CCc1nc(C2CCCCC2)c2[nH]c(N)c(S(=O)(=O)c3ccccc3)c2n1 [Example 53, 7-(benzenesulfonyl)-4-cyclohexyl-2-ethyl-5H-pyrrolo[3,2-d]pyrimidin-6-amine]",0.058
8,"Cc1nc(OC(C)C(F)(F)F)c2[nH]c(N)c(S(=O)(=O)c3ccccc3F)c2n1 (centres unmarked) [Example 274, 7-(2-fluorobenzenesulfonyl)-2-methyl-4-[(1,1,1-trifluoropropan-2-yl)oxy]-5H-pyrrolo[3,2-d]pyrimidin-6-amine]",0.008
9,"CN(CC1CCCCO1)c1ncnc2c(S(=O)(=O)c3ccccc3)c(N)[nH]c12 (centres unmarked) [Example 91, 7-(benzenesulfonyl)-4-N-methyl-4-N-(oxan-2-ylmethyl)-5H-pyrrolo[3,2-d]pyrimidine diamine]",1.4
10,"Cc1nc(OC2CC(F)(F)C2)c2[nH]c(N)c(S(=O)(=O)c3ccccc3)c2n1 [Example 259, 7-(benzenesulfonyl)-4-(3,3-difluorocyclobutoxy)-2-methyl-5H-pyrrolo[3,2-d]pyrimidin-6-amine]",0.066
11,"Nc1[nH]c2c(-n3cccn3)ncnc2c1S(=O)(=O)c1ccccc1 [Example 128, 7-(benzenesulfonyl)-4-(1H-pyrazol-1-yl)-5H-pyrrolo[3,2-d]pyrimidin-6-amine]",0.797
12,"Nc1[nH]c2c(N3CCOCC3)ncnc2c1S(=O)(=O)c1ccccc1 [Example 6, 7-(benzenesulfonyl)-4-(morpholin-4-yl)-5H-pyrrolo[3,2-d]pyrimidin-6-amine]",0.273
13,"CC1CN(c2ncnc3c(S(=O)(=O)c4cccnc4)c(N)[nH]c23)CCO1 (centres unmarked) [Example 122, 4-(2-methylmorpholin-4-yl)-7-(pyridine-3-sulfonyl)-5H-pyrrolo[3,2-d]pyrimidin-6-amine]",0.625
14,"Cc1nc(OC(C)C2CCCCC2)c2[nH]c(N)c(S(=O)(=O)c3ccccc3)c2n1 (centres unmarked) [Example 255, 7-(benzenesulfonyl)-4-(1-cyclohexylethoxy)-2-methyl-5H-pyrrolo[3,2-d]pyrimidin-6-amine]",0.065
15,"CN(CC(F)F)c1ncnc2c(S(=O)(=O)c3ccccc3)c(N)[nH]c12 [Example 96, 7-(benzenesulfonyl)-4-N-(2,2-difluoroethyl)-4 N-methyl-5H-pyrrolo[3,2-d]pyrimidine-4,6-diamine]",0.162
16,"CC(Oc1ncnc2c(S(=O)(=O)c3ccccc3)c(N)[nH]c12)C1CCCC1 (centres unmarked) [Example 212, 7-(benzenesulfonyl)-4-(1-cyclopentylethoxy)-5H-pyrrolo[3,2-d]pyrimidin-6-amine]",0.011
17,"Cc1nc(OC(C)C2CC2)c2[nH]c(N)c(S(=O)(=O)c3ccccc3)c2n1 (centres unmarked) [Example 230, 7-(benzenesulfonyl)-4-(1-cyclopropylethoxy)-2-methyl-5H-pyrrolo[3,2-d]pyrimidin-6-amine]",0.022
18,"Nc1[nH]c2c(N3CCC3)ncnc2c1S(=O)(=O)c1ccccc1 [Example 30, 4-(azetidin-1-yl)-7-(benzenesulfonyl)-5H-pyrrolo[3,2-d]pyrimidin-6-amine]",9.53
19,"Nc1[nH]c2c(C3CCCCC3)ncnc2c1S(=O)(=O)c1ccc(F)cc1 [Example 27, 4-cyclohexyl-7-[(4-fluorobenzene)sulfonyl]-5H-pyrrolo[3,2-d]pyrimidin-6-amine]",0.089

row,Structure (SMILES),EC50 [µM]
1,"COc1ccc(S(=O)(=O)c2c(N)[nH]c3c(N4CCO[C@@H](C)C4)nc(C)nc23)c(F)c1 [Example 233, 7-(2-fluoro-4-methoxybenzenesulfonyl)-2-methyl-4-[(2S)-2-methylmorpholin-4-yl]-5H-pyrrolo[3,2-d]pyrimidin-6-amine]",0.003
2,"CC1CN(c2ncnc3c(S(=O)(=O)c4ccccc4)c(N)[nH]c23)CCS1 (centres unmarked) [Example 195, 7-(benzenesulfonyl)-4-(2-methylthiomorpholin-4-yl)-5H-pyrrolo[3,2-d]pyrimidin-6-amine]",0.008
3,"CCC(CC)Oc1ncnc2c(S(=O)(=O)c3ccccc3)c(N)[nH]c12 [Example 213, 7-(benzenesulfonyl)-4-(pentan-3-yloxy)-5H-pyrrolo[3,2-d]pyrimidin-6-amine]",0.017
4,"Nc1[nH]c2c(OC3CCOCC3)ncnc2c1S(=O)(=O)c1ccccc1 [Example 166, 7-(benzenesulfonyl)-4-(oxan-4-yloxy)-5H-pyrrolo[3,2-d]pyrimidin-6-amine]",1.64
5,"Cc1nc(N2CCOC(C)(C)C2)c2[nH]c(N)c(S(=O)(=O)c3ccccc3)c2n1 [Example 139, 7-(benzenesulfonyl)-4-(2,2-dimethylmorpholin-4-yl)-2-methyl-5H-pyrrolo[3,2-d]pyrimidin-6-amine]",0.013
6,"COc1ccc(S(=O)(=O)c2c(N)[nH]c3c(N4CCO[C@H](C(F)(F)F)C4)nc(C)nc23)c(F)c1 [Example 282, 7-(2-fluoro-4-methoxybenzenesulfonyl)-2-methyl-4-[(2S)-2-(trifluoromethyl)morpholin-4-yl]-5H-pyrrolo[3,2-d]pyrimidin-6-amine]",0.001
7,"Cc1nc(N2CCOC(C)C2)c2[nH]c(N)c(S(=O)(=O)c3c(F)cccc3F)c2n1 (centres unmarked) [Example 263, 7-(2,6-difluorobenzenesulfonyl)-2-methyl-4-(2-methylmorpholin-4-yl)-5H-pyrrolo[3,2-d]pyrimidin-6-amine]",0.006
8,"Nc1[nH]c2c(OCC3CC3(F)F)ncnc2c1S(=O)(=O)c1ccccc1 (centres unmarked) [Example 175, 7-(benzenesulfonyl)-4-[(2,2-difluorocyclopropyl)methoxy]-5H-pyrrolo[3,2-d]pyrimidin-6-amine]",0.373
9,"Cc1nc(N2C[C@H](C)OC[C@@H]2C)c2[nH]c(N)c(S(=O)(=O)c3ccccc3F)c2n1 [Example 223, 4-[(2S,5S)-2,5-dimethylmorpholin-4-yl]-7-(2-fluorobenzenesulfonyl)-2-methyl-5H-pyrrolo[3,2-d]pyrimidin-6-amine]",0.007
10,"Cc1nc(N2CCO[C@H](C)[C@H]2C)c2[nH]c(N)c(S(=O)(=O)c3ccccc3F)c2n1 [Example 276, 4-[(RR,SS)-2,3-dimethylmorpholin-4-yl]-7-(2-fluorobenzenesulfonyl)-2-methyl-5H-pyrrolo[3,2-d]pyrimidin-6-amine]",0.016
11,"Nc1[nH]c2c(Br)cncc2c1S(=O)(=O)c1ccccc1 [Example 77, 3-(benzenesulfonyl)-7-bromo-1H-pyrrolo[3,2-c]pyridin-2-amine]",0.628
12,"Nc1[nH]c2c(N3CCO[C@@H](c4ccccc4)C3)ncnc2c1S(=O)(=O)c1ccccc1 [Example 134, 7-(benzenesulfonyl)-4-[(2S)-2-phenylmorpholin-4-yl]-5H-pyrrolo[3,2-d]pyrimidin-6-amine]",0.093
13,"COc1ccc(S(=O)(=O)c2c(N)[nH]c3c(N4CCOC(C)(C)C4)nc(C)nc23)c(F)c1 [Example 241, 4-(2,2-dimethylmorpholin-4-yl)-7-(2-fluoro-4-methoxybenzenesulfonyl)-2-methyl-5H-pyrrolo[3,2-d]pyrimidin-6-amine]",0.002
14,"CC1CN(c2ncnc3c(S(=O)(=O)C4CCN(C(=O)OCc5ccccc5)CC4)c(N)[nH]c23)CCO1 (centres unmarked) [Example 206, benzyl 4-{[6-amino-4-(2-methylmorpholin-4-yl)-5H-pyrrolo[3,2-d]pyrimidin-7-yl]sulfonyl}piperidine-1-carboxylate]",2.64
15,"Nc1[nH]c2c(N3CCC(F)(F)C3)ncnc2c1S(=O)(=O)c1ccccc1 [Example 29, 7-(benzenesulfonyl)-4-(3,3-difluoropyrrolidin-1-yl)-5H-pyrrolo[3,2-d]pyrimidin-6-amine]",0.399
16,"COc1ccc(S(=O)(=O)c2c(N)[nH]c3c(N4CCOC(C)C4)ncnc23)cc1 (centres unmarked) [Example 107, 7-(4-methoxybenzenesulfonyl)-4-(2-methylmorpholin-4-yl)-5H-pyrrolo[3,2-d]pyrimidin-6-amine]",0.041
17,"CC1CN(c2nc(N(C)C)nc3c(S(=O)(=O)c4ccccc4F)c(N)[nH]c23)CCO1 (centres unmarked) [Example 270, 7-(2-fluorobenzenesulfonyl)-2-N,2-N-dimethyl-4-(2-methylmorpholin-4-yl)-5H-pyrrolo[3,2-d]pyrimidine-2,6-diamine]",0.017
18,"CN(CC1OCCO1)c1ncnc2c(S(=O)(=O)c3ccccc3)c(N)[nH]c12 [Example 93, 7-(benzenesulfonyl)-4-N-(1,3-dioxolan-2-ylmethyl)-4-N-methyl-5H-pyrrolo[3,2-d]pyrimidine-4,6-diamine]",9.51
19,"CC1CN(c2nc(C(F)(F)F)nc3c(S(=O)(=O)c4ccccc4F)c(N)[nH]c23)CCO1 (centres unmarked) [Example 268, 7-(2-fluorobenzenesulfonyl)-4-(2-methylmorpholin-4-yl)-2-(trifluoromethyl)-5H-pyrrolo[3,2-d]pyrimidin-6-amine]",0.017
